Experimental data: patent US5708008A, “5-Substituted-3-(1,2,3,6-tetrahydropyridin-4-yl)-and 3-(piperidin-4-yl)-1H-indoles: new 5-HT1F agonists” (Eli Lilly and Company, priority 1996, dated 1998)
Read-outs that look alike come from different tables or passages of the source.

Experiments:
[1] = test system: protein extravasation induced by stimulation of the trigeminal ganglion; assay: Inhibition of neuronal protein extravasation in dura after electrical stimulation of trigeminal ganglion; format: in vivo, rat or guinea pig
[2] = cited from earlier work
[3] = literature; cited from earlier work
[4] = test system: cephalic vascular smooth muscle; details: literature; cited from earlier work
migraine = details: literature; cited from earlier work
[5] = Rattus norvegicus, iv, read-out: Inhibition of Protein Extravasation, i.v. ID50

## Oc1ccc2[nH]cc(C3CCNCC3)c2c1 [Compound III]
[1]; [5]
  ED50: 8.9e-06 µmol/kg

## Cn1cc(CCN2CCC(c3c[nH]c4ccc(F)cc34)CC2)cn1 [Compound II]
[1]; Rattus norvegicus, iv; read-out: Inhibition of Protein Extravasation, i.v. ID50
  ED50: 8.6e-07 µmol/kg

## CCN(CC)C1CCc2cccc(Cl)c2C1 (centres unmarked) [Compound IV]
[1]; [5]
  ED50: 0.00012 µmol/kg

## CNS(=O)(=O)Cc1ccc2[nH]cc(CCN(C)C)c2c1 [Compound I]
[2]; due to affinity for a number of serotonin receptor subtypes
  side effects: undesirable side effects, particularly vasoconstriction
[2]; in vivo
  bioavailability: low bioavailability
  duration of action: relatively short duration of action
[3]
  crossing of the blood-brain barrier: does not cross the blood-brain barrier
[4]
  contraction of cephalic vascular smooth muscle: contract cephalic vascular smooth muscle
migraine
  efficacy in treatment of migraine: effective in the treatment of migraine
[1]; [5]
  ED50: 2.6e-05 µmol/kg

## CN(C)C1CCc2[nH]c3ccc(O)cc3c2C1 (centres unmarked) [Compound V]
[1]; [5]
  ED50: 8.7e-06 µmol/kg
